From PMC9415509, “Pro-Apoptotic Antitumoral Effect of Novel Acridine-Core Naphthoquinone Compounds against Oral Squamous Cell Carcinoma” (Molecules, 2022)

Tests used:
[1] = tested on: SCC9 (OSCC cell); experiment: MTT cell viability assay (cytotoxicity), SCC9; assay type: cell-based, human; settings: for IC50: Homo sapiens, SCC-9, SCC9, 48 h, MTT (Table 1), read-out: SCC9—Oral Cancer IC50; for SCC9 S.I.: IC50 normal oral fibroblasts / IC50 SCC9
Experimental: (§1) Cells and reagents. Human SCC-4, SCC-9, and SCC-25 cells, derived from a human oral tongue SCC (squamous cell carcinoma) were obtained from the ATCC (CRL-1624, CRL-1629, and CRL-1628, respectively) and maintained in 1:1 DMEM/F12 (Dulbecco’s modified Eagle medium and Ham’s F12 medium; Gibco (Thermo Fisher, Waltham, MA, USA)) supplemented with 10% (v/v) FBS (fetal bovine serum; Invitrogen, Thermo Fisher, Waltham, MA, USA) and 400 ng/mL hydrocortisone (Sigma-Aldrich Co., St. Louis, MO, USA). Primary normal human gingival fibroblasts were obtained from the ATCC (PCS-201-018) and maintained in DMEM supplemented with 10% (v/v) FBS and were used in a maximum of six passages. The cells were grown in a humidified environment containing 5% CO2 at 37 °C. […] Carboplatin stock was prepared in water (Fauldcarbo®; LibbsFarmacêutica, São Paulo, SP, Brazil) and was used as a standard anticancer compound.
(§2) Cell viability assay (cytotoxicity) and compound stability assay. The viability of SCC cell lines and primary human fibroblast cells was evaluated using the MTT assay as in [48]. Briefly, the cells were grown in triplicates in 96-well plates (5 × 10^3 cells/well) until confluence. Then, the medium was removed, fresh medium was added, and the cells were returned to the incubator in the presence of different compounds. DMSO at the same concentrations was used as a 100% cell viability control. After 48 h, the cells were incubated with 5 mg/mL MTT reagent (3-(4,5-dimethyl-2-thiazolyl)-2,5-diphenyl-2-H-tetrazolium bromide) (Sigma-Aldrich Co., St. Louis, MO, USA) for 3.5 h. After that, formazan crystals were dissolved in MTT solvent solution (DMSO/methanol 1:1 v/v) and the absorbance at 560 nm was evaluated using an EPOCH microplate spectrophotometer (BioTek Instruments, Winooski, VT, USA) with the background absorbance at 670 nm subtracted.
(§3) Statistical analysis, IC50 calculation. The data are presented as means ±\SD. IC50 values for the MTT assays were obtained by nonlinear regression using the […] 5.0 program (Intuitive Software for Science, San Diego, CA, USA) from at least three independent experiments. A dose–response (inhibitor) vs. response curve using the least squares method was used to determine the IC50, SD, and R^2 of the data. The selectivity index was calculated as SI = IC50 of the compound in normal oral fibroblast cells/IC50 of the same compound for each oral cancer cell line (SCC-4, SCC-9, and SCC-25) and the mean was calculated when indicated.

[2] = tested on: SCC25 OSCC cell line; experiment: MTT cell viability assay (cytotoxicity), SCC25; assay type: cell-based, human; settings: for IC50: Homo sapiens, SCC-25, SCC25, 48 h, MTT, read-out: Oral Tumor Cells SCC25 IC50; for SCC25 S.I.: IC50 normal oral fibroblasts / IC50 SCC25
Experimental: as §1, §2, §3

[3] = tested on: SCC4 OSCC cell line; experiment: MTT cell viability assay (cytotoxicity), SCC4; assay type: cell-based, human; settings: for IC50: Homo sapiens, SCC-4, SCC4, 48 h, MTT, read-out: Oral Tumor Cells SCC4 IC50; for SCC4 S.I.: IC50 normal oral fibroblasts / IC50 SCC4
Experimental: as §1, §2, §3

[4] = MTT cell viability assay, normal fibroblasts; assay type: cell-based, human; settings: human, primary normal human gingival fibroblasts (ATCC PCS-201-018)
Experimental: as §1, §2, §3

[5] = tested on: Primary normal human gingival fibroblasts; experiment: MTT cell viability assay, normal fibroblasts; assay type: cell-based; settings: Homo sapiens, Fibroblast; primary gingival fibroblasts, 48 h, MTT; read-out: Primary Gingival Fibroblast IC50
Experimental: as §1, §2, §3

Row | Structure (SMILES) | IC50 [1] [µM] | SCC9 S.I. [1] | IC50 [2] [µM] | SCC25 S.I. [2] | IC50 [3] [µM] | SCC4 S.I. [3] | viability at 48 h [4] [%] | IC50 [5] [µM] | melting point [°C]
1 | COc1cc(C2C3=C(CC(C)(C)CC3=O)NC3=C2C(=O)c2ccccc2C3=O)cc(OC)c1OC (stereo not drawn) [4m, 12-(3,4,5-trimethoxyphenyl)-3,3-dimethyl-3,4-dihydrobenzo[b]acridine-1,6,11(2H,5H,12H)-trione] | 2.06 | 3.8 | 7.41 | 1.1 | 11 | 0.7 | > 75 | 7.86 | 242 to 243
2 | COc1ccc(C2C3=C(CC(C)(C)CC3=O)NC3=C2C(=O)c2ccccc2C3=O)c(OC)c1 (stereo not drawn) [4j, 12-(2,4-dimethoxyphenyl)-3,3-dimethyl-3,4-dihydrobenzo[b]acridine-1,6,11(2H,5H,12H)-trione] | 4.1 | 5.7 | 11.5 | 2.0 | 18.9 | 1.2 | > 75 | 23.6 | 250 to 251
